Reference: patent US20240368163A1, “COMPOUNDS AND METHODS FOR MODULATING SPLICING” (REMIX THERAPEUTICS INC., priority 2021, published 2024)

Tests used:
Type in all cases: cell-based, human
HTT = test: HiBiT protein abundance assay, HTT; conditions: modified K562 cells
Protocol: (§1) Compounds described herein were used to screen for effects on quantitative protein abundance using a HiBit assay system (Promega). Quantitative protein abundance was determined by measuring the protein levels of HiBit-tagged protein targets expressed in cell culture via luminescence using the Nano-Glo HiBiT Lytic Detection System, which uses a split complementation assay format to reconstitute NanoBiT enzyme to generate a luminescent signal. A protein abundance assay was developed such that endogenous protein targets could be modified with the HiBiT peptide tag and their abundance could be assessed after compound treatment. Briefly, K562 cell lines containing a HiBiT-modification were treated with various compounds described herein (e.g., compounds of Formulas (I), (II), or (III)). After treatment for 24 hours, the protein abundance of a specific target was determined by measuring luminescence.
(§2) Cells were maintained in IMIDM with 10% FBS. Before the assay, cells were diluted with […] growth media (IMIDM+[…] media) and were seeded in a 384-well plate at a density of 10000 cells/well (for each cell line listed in Table 12). Each compound was prepared as a 10-point 3-fold serial dilution in DMSO with the top dose at a final concentration of 10 μM in the well. Unmodified K562 cells were added at the previously specified density with DMSO to serve as an assay baseline and positive control (PC) and DMSO only with the respective modified cell lines was added to the negative control (NC) columns. Final DMSO concentration was kept at or below 0.25%. Treated cell plates were placed in an incubator at 37° C. with 5% CO2 for 24 hours. After 24 hours, 25 μL of Complete HiBit Lytic reagent was added to each well at room temperature (e.g. one plate requiring 10 mL Lytic Buffer, 100 μL LgBiT Protein, 200 μL Lytic Substrate), shaken for 5 minutes at 600 RPM, then left to sit for 10 minutes for signal to stabilize before reading on a Spark Cyto plate reader (Tecan) with a 500 ms measurement time.
(§3) To determine compound effects on protein abundance of each target in Table 12, the percent response for each respective cell line was calculated at each compound concentration as follows:
(§4) For the normalized response at each concentration, a four-parameter logistical regression was fit to the data and the response was interpolated at the 50% value to determine a concentration for protein abundance at 50% (IC50) the untreated control.

MYB [1] = test: HiBiT protein abundance assay, MYB; conditions: Homo sapiens, K562, 24 h, modified K562 cells
Protocol: as §1, §2, §3, §4

Target C = test: HiBiT protein abundance assay, Target C; conditions: Homo sapiens, K562, 24 h, modified K562 cells
Protocol: • Promega Nano-Glo HiBiT Lytic Detection System (cat #N3030) • Coming 384-well TC-treated microplates (cat #3570) • Synthego Engineered Cells Knock-In Clones
as §2, §3, §4

MYB [2] = test: Splicing RT-qPCR assay, MYB mRNA canonical junction (CJ) and alternative junction (AJ); conditions: for AC50: increase in AJ mRNA
Protocol: Compounds described herein were used to modulate RNA transcript abundance in cells. The expression of a target mRNA was measured by detecting the formation of an exon-exon junction in the canonical transcript (CJ). A compound mediated exon-inclusion event was detected by observing an increase in formation of a new junction with an alternative exon (AJ). Real-time qPCR assays were used to detect these splicing switches and interrogate the potency of various compounds towards different target genes. A high-throughput real time quantitative PCR (RT-qPCR) assay was developed to measure these two isoforms of the mRNA (CJ and AJ) for exemplary genes, such as HTT, SMN2, and MYB, together with a control housekeeping gene, GAPDH or GUSB or PPIA, used for normalization. Briefly, the A673 or K562 cell line was treated with various compounds described herein (e.g., compounds of Formula (I)). After treatment, the levels of the HTT, MYB, or SMN2 mRNA targets were determined from each sample of cell lysate by cDNA synthesis followed by qPCR.
The A673 cell line was cultured in DMEM with 10% FBS. Cells were diluted with full growth media and plated in a 96-well plate (15,000 cells in 100 ul media per well). The plate was incubated at 37° C. with 5% CO2 for 24 hours to allow cells to adhere. An 11-point 3-fold serial dilution of the compounds was made in DMSO then diluted in media in an intermediate plate. Compounds were transferred from the intermediate plate to the cell plate with the top dose at a final concentration of 10 uM in the well. Final DMSO concentration was kept at or below 0.25%. The cell plate was returned to the incubator at 37° C. with 5% CO2 for an additional 24 hours.
The K562 cell line was cultured in IMDM with 10% FBS. For K562, cells were diluted with full growth media and plated in either a 96-well plate (50,000 cells in 50 uL media per well) or a 384-well plate (8,000-40,000 cells in 45 uL media per well). An 11-point 3-fold serial dilution of the compounds were made in DMSO then diluted in media in an intermediate plate. Compound was transferred from the intermediate plate to the cell plate with the top dose at a final concentration of 10 uM in the well. Final DMSO concentration was kept at or below 0.25%. Final volume was 100 uL for 96-well plate and 50 uL for 384-well plate. The cell plate was then placed in an incubator at 37° C. with 5% CO2 for 24 hours.
The cells were then gently washed with 50 uL-100 uL cold PBS before proceeding to addition of lysis buffer. 30 uL-50 μL of room temperature lysis buffer with DNAse I (and optionally RNAsin) was added to each well. Cells were shaken/mixed thoroughly at room temperature for 5-10 minutes for lysis to take place and then 3 uL-5 μL of room temperature stop solution was added and wells were shaken/mixed again. After 2-5 minutes, the cell lysate plate was transferred to ice for RT-qPCR reaction setup. The lysates could also be frozen at −80° C. for later use.
In some cases, a direct lysis buffer was used. An appropriate volume of 3× lysis buffer (10 mM Tris, 150 mM NaCl, 1.5%-2.5% Igepal and 0.1-1 U/uL RNAsin, pH 7.4) was directly added to either K562 or A673 cells in media and mixed by pipetting 3 times. The plates were then incubated at room temperature with shaking/rocking for 20-50 minutes to allow for lysis to take place. After this time, the cell lysate plate was transferred to ice to set up for the RT-qPCR reactions. The lysates could also be frozen at −80° C. for later use.
To set up 10 uL RT-qPCR reactions, cell lysates were transferred to 384-well qPCR plates containing the master mix according to the table below. The plates were sealed, gently vortexed, and spun down before the run. The volumes were adjusted accordingly in some instances where the reaction was carried in 20 μL. The table below summarizes the components of the RT-qPCR reactions:
The RT-qPCR reaction was performed using a QuantStudio (ThermoFisher) under the following fast cycling conditions. […]

[3] = Homo sapiens, K562, 24 h, Table 13A
[4] = Homo sapiens, 24 h, decrease in CJ mRNA, A673 or K562 cells, 24 hours treatment, RT-qPCR, read-out: MYB CJ IC50
[5] = Homo sapiens, 24 h, A673 or K562 cells, 24 hours treatment, RT-qPCR
[6] = Homo sapiens, RT-qPCR panel, canonical junction mRNA, compound concentration having 50% response in CJ decrease, read-out: MYB IC50 (decrease in CJ mRNA levels)
[7] = Homo sapiens, K562, 24 h, Table 13B

Row | Compound | IC50 (HTT; [3]) [µM] | IC50 (MYB [1]; Table 13A) [µM] | IC50 (Target C; Table 13A) [µM] | further results
1 | C[C@@H]1C[C@H](N(C)c2ccc(-c3ccc(-c4cn[nH]c4)c4cn[nH]c34)nn2)CCN1 [Compound 101] | 1 to 10 | 1 to 10 | 1 to 10 | –
2 | C[C@@H]1C[C@H](N(C)c2ccc(-c3ccc(-n4cccn4)c4cn[nH]c34)nn2)CCN1 [Compound 103] | 1 to 10 | 1 to 10 | 1 to 10 | –
3 | C[C@@H]1C[C@@H](N(C)c2ccc(-c3ccc(-c4cn[nH]c4)c4cc[nH]c34)nn2)CCN1 [Compound 107] | 1 to 10 | 1 to 10 | 1 to 10 | –
4 | C[C@H]1C[C@@H](N(C)c2ccc(-c3ccc(-c4cn[nH]c4)c4cc[nH]c34)nn2)CCN1 [Compound 108] | > 10 | > 10 | > 10 | IC50 (MYB [2]; [4]): > 10 µM; AC50 (MYB [2]; [5]): > 10 µM; IC50 (MYB [2]; [6]): > 10 µM
5 | C[C@@H]1C[C@@H](N(C)c2ccc(-c3ccc(-n4cccn4)c4cc[nH]c34)nn2)CCN1 [Compound 110] | 1 to 10 | 1 to 10 | 1 to 10 | –
6 | CN(c1ccc(-c2ccc(-c3cn[nH]c3)c3cc[nH]c23)nn1)[C@@H]1C[C@H]2CC[C@@H](C1)N2 [Compound 112] | 1 to 10 | 1 to 10 | 1 to 10 | IC50 (MYB [2]; [4]): 1 to 10 µM; AC50 (MYB [2]; [5]): 1 to 10 µM; IC50 (MYB [2]; [6]): 1 to 10 µM
7 | CN(c1ccc(-c2ccc(-n3cccn3)c3cc[nH]c23)nn1)[C@@H]1C[C@H]2CC[C@@H](C1)N2 [Compound 113] | 1 to 10 | 1 to 10 | 1 to 10 | IC50 (MYB [2]; [4]): > 10 µM; AC50 (MYB [2]; [5]): > 10 µM; IC50 (MYB [2]; [6]): > 10 µM
8 | C[C@@H]1C[C@H](N(C)c2ccc(-c3ccc(-c4cn[nH]c4)c4nn[nH]c34)nn2)CCN1 [Compound 115] | > 10 | > 10 | > 10 | IC50 (MYB [2]; [4]): > 10 µM; AC50 (MYB [2]; [5]): > 10 µM; IC50 (MYB [2]; [6]): > 10 µM
9 | C[C@@H]1C[C@H](N(C)c2ccc(-c3ccc(-c4cn[nH]c4)c4c3NC(=O)C4)nn2)CCN1 [Compound 121] | > 10 | > 10 | > 10 | IC50 (MYB [2]; [4]): > 10 µM; AC50 (MYB [2]; [5]): > 10 µM; IC50 (MYB [2]; [6]): > 10 µM
10 | CN(c1ccc(-c2ccc(-c3cn[nH]c3)c3c2NC(=O)C3)nn1)[C@@H]1C[C@H]2CC[C@@H](C1)N2 [Compound 123] | > 10 | > 10 | > 10 | –
11 | CC1(C)CC(Oc2ccc(-c3ccc(-n4cccn4)c4cn[nH]c34)nn2)CC(C)(C)N1 [Compound 151] | 0.1 to 1 | 0.1 to 1 | 0.1 to 1 | –
12 | c1cnn(-c2ccc(-c3ccc(O[C@@H]4C[C@H]5CC[C@@H](C4)N5)nn3)c3[nH]ncc23)c1 [Compound 152] | < 0.1 | 0.1 to 1 | < 0.1 | –
13 | CN(c1ccc(-c2ccc(-c3cn[nH]c3)c3nc[nH]c23)nn1)[C@@H]1C[C@H]2CC[C@@H](C1)N2 [Compound 163] | > 10 | > 10 | > 10 | –
14 | CN(c1ccc(-c2ccc(-c3cn(C)nn3)c3cn[nH]c23)nn1)[C@@H]1C[C@H]2CC[C@@H](C1)N2 [Compound 165] | 1 to 10 | 1 to 10 | 1 to 10 | –
15 | c1nc2c(-c3cn[nH]c3)ccc(-c3ccc(O[C@@H]4C[C@H]5CCC[C@@H](C4)N5)nn3)c2s1 [Compound 209] | < 0.1 | 0.1 to 1 | < 0.1 | –
16 | c1nc2c(-c3cn[nH]c3)ccc(-c3ccc(N4C[C@H]5CNC[C@H]5C4)nn3)c2s1 [Compound 282] | 1 to 10 | 1 to 10 | > 10 | –
17 | [2H]C([2H])([2H])N(c1ccc(-c2ccc(-c3cn[nH]c3)c3cn[nH]c23)nn1)[C@@H]1C[C@H]2CC[C@@H](C1)N2 [Compound 299] | < 0.1 | < 0.1 | < 0.1 | –
18 | Cc1cc(-c2ccc(-c3ccc(N(C)[C@@H]4C[C@H]5CC[C@@H](C4)N5)nn3)c3[nH]ncc23)cnn1 [Compound 383, (exo)-N-methyl-N-{6-[4-(6-methylpyridazin-4-yl)-1H-indazol-7-yl]pyridazin-3-yl}-8-azabicyclo[3.2.1]octan-3-amine] | 1 to 10 | 1 to 10 | 1 to 10 | –
19 | c1nc2c(-c3cn[nH]c3)ccc(-c3ccc(N(C4CC4)[C@@H]4C[C@H]5CC[C@@H](C4)N5)nn3)c2s1 [Compound 389, (exo)-N-cyclopropyl-N-{6-[4-(1H-pyrazol-4-yl)-1,3-benzothiazol-7-yl]pyridazin-3-yl}-8-azabicyclo [3.2.1] octan-3-amine] | 0.1 to 1 | 0.1 to 1 | < 0.1 | –
20 | c1nc2c(-c3cn[nH]c3)ccc(-c3cnc(N4CCN[C@H](C5CC5)C4)nn3)c2s1 [Compound 553] | – | – | – | IC50 (HTT; Table 13A, 24 hours): 1 to 10 µM; IC50 (MYB [2]; RT-qPCR panel, canonical junction mRNA, compound concentration having 50% response in CJ decrease, read-out: MYB IC50 (decrease in CJ mRNA levels)): 1 to 10 µM
21 | CN(c1ccc(-c2ccc(-c3cn[nH]c3)c(=O)[nH]2)nn1)[C@@H]1C[C@H]2CC[C@@H](C1)N2 [Compound 904] | – | – | – | IC50 (HTT; [7]): > 10 µM; IC50 (MYB [1]; Table 13B): > 10 µM; IC50 (Target C; Table 13B): > 10 µM
22 | CN(c1ccc(-c2ccc(-n3cccn3)c(=O)[nH]2)nn1)[C@@H]1C[C@H]2CC[C@@H](C1)N2 [Compound 905] | – | – | – | IC50 (HTT; [7]): 0.1 to 1 µM; IC50 (MYB [1]; Table 13B): 1 to 10 µM; IC50 (Target C; Table 13B): 0.1 to 1 µM
